molecular target: human full-length recombinant HPK1 (Homo sapiens (Human), UniProt Q92918); test: HPK1 biochemical enzyme assay, microfluidic mobility shift assay (MSA); conditions: HPK1 mobility shift assay; read-out: HPK1 Enzyme Assay_Ki
Procedure: HPK1 enzyme inhibition was measured using a microfluidic mobility shift assay (MSA). […] The reactions were conducted for 60 min at 37° C., stopped by the addition of 50 μL of 0.015 M EDTA, pH 8, and the extent of reactions (˜15-20% conversion with no inhibitor) was determined after electrophoretic separation of the fluorescently labeled peptide substrate and phosphorylated product on an LabChip EZ Reader II (PerkinElmer, Inc., Waltham, Mass.). […]

Sequence of human full-length recombinant HPK1 (Q92918 whole entry): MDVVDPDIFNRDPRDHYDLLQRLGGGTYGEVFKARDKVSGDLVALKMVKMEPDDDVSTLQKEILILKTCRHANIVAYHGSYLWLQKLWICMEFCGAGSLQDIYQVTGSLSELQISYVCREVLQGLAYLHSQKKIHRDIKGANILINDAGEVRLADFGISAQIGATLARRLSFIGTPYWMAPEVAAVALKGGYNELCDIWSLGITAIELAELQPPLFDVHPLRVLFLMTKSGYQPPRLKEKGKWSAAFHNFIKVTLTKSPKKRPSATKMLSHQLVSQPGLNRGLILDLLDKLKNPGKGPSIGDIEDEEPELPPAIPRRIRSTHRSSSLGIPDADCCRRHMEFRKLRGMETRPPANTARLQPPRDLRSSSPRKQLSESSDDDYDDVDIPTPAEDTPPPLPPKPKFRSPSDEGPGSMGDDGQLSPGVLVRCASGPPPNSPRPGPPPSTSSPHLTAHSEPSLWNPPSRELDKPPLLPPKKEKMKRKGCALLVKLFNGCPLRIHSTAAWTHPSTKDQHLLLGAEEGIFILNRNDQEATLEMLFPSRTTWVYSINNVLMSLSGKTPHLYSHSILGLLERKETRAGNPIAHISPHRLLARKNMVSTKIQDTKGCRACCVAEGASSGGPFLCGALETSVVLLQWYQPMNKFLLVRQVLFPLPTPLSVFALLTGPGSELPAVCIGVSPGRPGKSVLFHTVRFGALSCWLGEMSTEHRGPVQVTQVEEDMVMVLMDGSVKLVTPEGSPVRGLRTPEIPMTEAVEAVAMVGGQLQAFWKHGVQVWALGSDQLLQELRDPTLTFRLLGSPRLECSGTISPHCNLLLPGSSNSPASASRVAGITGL

Ki [nM]	SMILES
0.47	CNCc1nc(C2(C)CC2)cc2c1CN(c1cccc(-c3nncn3C3CCCC3)n1)C2=O [Example 179]
1.91	CCCn1c(CC)nnc1-c1cccc(N2Cc3c(cc(N4CCC[C@H]4C)nc3CN)C2=O)n1 [Example 186]
26	CNCc1nc(C2(C)CC2)cc2c1CN(c1cccc(-c3nnc(C)n3C3CCC3)n1)C2=O [Example 187]

Continued, compound first:

SMILES	Ki [nM]
CCC(CC(F)(F)F)n1cnnc1-c1cccc(N2Cc3c(cc(C4(C)CC4)nc3CNC)C2=O)n1 (single isomer, unassigned) [Example 180]	25.1
CCC(CC(F)(F)F)n1cnnc1-c1cccc(N2Cc3c(cc(C4(C)CC4)nc3CNC)C2=O)n1 (single isomer, unassigned) [Example 181]	0.13
CC[C@H](CO)n1cnnc1-c1cccc(N2Cc3c(cc(C4(C)CC4)nc3CNC)C2=O)n1 (single isomer, unassigned) [Example 183]	0.35
CC[C@@H](CO)n1cnnc1-c1cccc(N2Cc3c(cc(C4(C)CC4)nc3CNC)C2=O)n1 (single isomer, unassigned) [Example 184]	1.15
CCNc1cc2c(c(CNC)n1)CN(c1cccc(-c3nncn3C(C)C)n1)C2=O [Example 77, 6-(ethylamino)-4-[(methylamino)methyl]-2-{6-[4-(propan-2-yl)-4H-1,2,4-triazol-3-yl]pyridin-2-yl}-2,3-dihydro-1H-pyrrolo[3,4-c]pyridin-1-one]	0.68
CCCn1cnnc1-c1cccc(N2Cc3c(cc(N(CC)C(C)C)nc3CNC)C2=O)n1 [Example 99, 6-[ethyl(propan-2-yl)amino]-4-[(methylamino)methyl]-2-[6-(4-propyl-4H-1,2,4-triazol-3-yl)pyridin-2-yl]-2,3-dihydro-1H-pyrrolo[3,4-c]pyridin-1-one]	0.83
CNCc1nc(N(C)C)cc2c1CN(c1cccc(-c3nncn3[C@@H](C)C(C)C)n1)C2=O [Example 178]	0.17
CNCc1nc(N(C)C)cc2c1CN(c1cccc(-c3nncn3[C@H](C)C(C)C)n1)C2=O [Example 182]	0.37
Cc1nnc(-c2cccc(N3Cc4c(cc(C5(C)CC5)nc4CN)C3=O)n2)n1C1CCC1 [Example 188]	41

same assay, conditions: mobility shift assay; 75 μM ATP; Morrison equation, tight-binding competitive inhibition; read-out: HPK1 Enzyme Assay_Ki

Ki [nM]	SMILES
0.77	CNCc1nc(N2[C@H](C)C[C@H]2C)cc2c1CN(c1cccc(-c3nncn3C(C)C)n1)C2=O [Example 3, 6-[(2R,4R)-2,4-dimethylazetidin-1-yl]-4-[(methylamino)methyl]-2-{6-[4-(propan-2-yl)-4H-1,2,4-triazol-3-yl]pyridin-2-yl}-2,3-dihydro-1H-pyrrolo[3,4-c]pyridin-1-one]
0.19	CNCc1nc(N2[C@H](C)CC[C@@H]2C)cc2c1CN(c1cccc(-c3nncn3C(C)C)n1)C2=O [Example 27, 6-[(2R,5S)-2,5-dimethylpyrrolidin-1-yl]-4-[(methylamino)methyl]-2-{6-[4-(propan-2-yl)-4H-1,2,4-triazol-3-yl]pyridin-2-yl}-2,3-dihydro-1H-pyrrolo[3,4-c]pyridin-1-one]
< 0.06	CCCn1cnnc1-c1cccc(N2Cc3c(cc(N4CCC[C@H]4C)nc3CNC)C2=O)n1 [Example 55, 4-[(methylamino)methyl]-6-[(2R)-2-methylpyrrolidin-1-yl]-2-[6-(4-propyl-4H-1,2,4-triazol-3-yl)pyridin-2-yl]-2,3-dihydro-1H-pyrrolo[3,4-c]pyridin-1-one]
< 0.17	CCCn1c(C)nnc1-c1cccc(N2Cc3c(cc(N(C)C(C)C)nc3CNC)C2=O)n1 [Example 64, 4-[(methylamino)methyl]-6-[methyl(propan-2-yl)amino]-2-[6-(5-methyl-4-propyl-4H-1,2,4-triazol-3-yl)pyridin-2-yl]-2,3-dihydro-1H-pyrrolo[3,4-c]pyridin-1-one]
1.29	CCc1nnc(-c2cccc(N3Cc4c(cc(N(C)C(C)C)nc4CNC)C3=O)n2)n1CC [Example 67, 2-[6-(4,5-diethyl-4H-1,2,4-triazol-3-yl)pyridin-2-yl]-4-[(methylamino)methyl]-6-[methyl(propan-2-yl)amino]-2,3-dihydro-1H-pyrrolo[3,4-c]pyridin-1-one]

Second part, the compound before the results:

SMILES	Ki [nM]
CC[C@@H](CC(F)(F)F)n1cnnc1-c1cccc(N2Cc3c(cc(N(C)C)nc3CNC)C2=O)n1 (single isomer, unassigned) [Example 18, 6-(dimethylamino)-4-[(methylamino)methyl]-2-(6-{4-[(3ξ)-1,1,1-trifluoropentan-3-yl]-4H-1,2,4-triazol-3-yl}pyridin-2-yl)-2,3-dihydro-1H-pyrrolo[3,4-c]pyridin-1-one]	< 0.05
CNCc1nccc2c1CN(c1cccc(-c3nncn3C(C)C)n1)C2=O [Example 23, 4-[(methylamino)methyl]-2-{6-[4-(propan-2-yl)-4H-1,2,4-triazol-3-yl]pyridin-2-yl}-2,3-dihydro-1H-pyrrolo[3,4-c]pyridin-1-one]	140
CNCc1nc(N2[C@H]3CC[C@@H]2CC3)cc2c1CN(c1cccc(-c3nncn3C(C)C)n1)C2=O [Example 25, 6-[(1s,4s)-7-azabicyclo[2.2.1]hept-7-yl]-4-[(methylamino)methyl]-2-{6-[4-(propan-2-yl)-4H-1,2,4-triazol-3-yl]pyridin-2-yl}-2,3-dihydro-1H-pyrrolo[3,4-c]pyridin-1-one]	1
CC(C)n1cnnc1-c1cccc(N2Cc3c(cc(C4CC4)nc3CN)C2=O)n1 [Example 31, 4-(aminomethyl)-6-cyclopropyl-2-{6-[4-(propan-2-yl)-4H-1,2,4-triazol-3-yl]pyridin-2-yl}-2,3-dihydro-1H-pyrrolo[3,4-c]pyridin-1-one]	0.66
CNCc1nc(C(F)(F)F)cc2c1CN(c1cccc(-c3nncn3C(C)C)n1)C2=O [Example 52, 4-[(methylamino)methyl]-2-{6-[4-(propan-2-yl)-4H-1,2,4-triazol-3-yl]pyridin-2-yl}-6-(trifluoromethyl)-2,3-dihydro-1H-pyrrolo[3,4-c]pyridin-1-one]	89.9
CCCn1cnnc1-c1cccc(N2Cc3c(cc(N(C)C(C)C)nc3CNC)C2=O)n1 [Example 63, 4-[(methylamino)methyl]-6-[methyl(propan-2-yl)amino]-2-[6-(4-propyl-4H-1,2,4-triazol-3-yl)pyridin-2-yl]-2,3-dihydro-1H-pyrrolo[3,4-c]pyridin-1-one]	< 0.09

system: phospho-SLP-76 (Ser376) in Jurkat cells; test: Phospho-SLP-76 (Ser376) Homogeneous Time Resolved Fluorescence (HTRF) assay in Jurkat cells; assay type: cell-based; conditions: Homo sapiens, 30 min pre-treatment, anti-CD3 stimulation 15 min, HTRF, read-out: SLP76 Assay_IC50
Procedure: Jurkat cells were seeded at 90,000 cells/well in 90 uL of RPMI1640 growth medium containing 10% FBS and incubated at 37° C. with 5% CO2 overnight. The following day, compounds were serially diluted from a 10 mM top dose for an 11-point 3 fold dilution curve in DMSO. Compounds were intermediately diluted 1:100 into growth media prior to diluting 1:10 on cells for final concentration 10 μM to 0.1 nM in 0.1% DMSO. After 30 minutes pre-treatment with compounds, the cells were stimulated using 200 μg/mL of F(ab)2 complexed anti-CD3 (clone UCTH1) for 15 min at 37° C. with 5% CO2. Stimulation was stopped with ice cold PBS and cells were harvested by centrifugation before lysis in Cisbio lysis buffer (Cisbio, Bedford, Mass.). Lysates were transferred to white, low-volume plates containing anti-phospho-SLP-76-Cryptate plus anti-phospho-SLP-76-d2 HTRF antibodies and incubated overnight at room temperature protected from light according to the manufacturer's protocol (Cisbio, Bedford, Mass.). HTRF was measured on a Perkin Elmer Envision and IC50 values were calculated by concentration-response curve fitting utilizing four-parameter nonlinear regression analyses.

IC50 [nM]	SMILES
101	CC[C@@H](CC(F)(F)F)n1cnnc1-c1cccc(N2Cc3c(cc(N(C)C)nc3CNC)C2=O)n1 (single isomer, unassigned) [Example 18, 6-(dimethylamino)-4-[(methylamino)methyl]-2-(6-{4-[(3ξ)-1,1,1-trifluoropentan-3-yl]-4H-1,2,4-triazol-3-yl}pyridin-2-yl)-2,3-dihydro-1H-pyrrolo[3,4-c]pyridin-1-one]
134	CNCc1nc(N2CCCC2)cc2c1CN(c1cccc(-c3nncn3[C@@H](C)CC(F)(F)F)n1)C2=O [Example 15, 4-[(methylamino)methyl]-6-(pyrrolidin-1-yl)-2-(6-{4-[(2S)-4,4,4-trifluorobutan-2-yl]-4H-1,2,4-triazol-3-yl}pyridin-2-yl)-2,3-dihydro-1H-pyrrolo[3,4-c]pyridin-1-one]
488	CNCc1nc(NC)cc2c1CN(c1cccc(-c3nncn3C(C)C)n1)C2=O [Example 24]
42	CCCn1c(C)nnc1-c1cccc(N2Cc3c(cc(N4CCC[C@H]4C)nc3CNC)C2=O)n1 [Example 62, 4-[(methylamino)methyl]-2-[6-(5-methyl-4-propyl-4H-1,2,4-triazol-3-yl)pyridin-2-yl]-6-[(2R)-2-methylpyrrolidin-1-yl]-2,3-dihydro-1H-pyrrolo[3,4-c]pyridin-1-one]

same assay, conditions: Homo sapiens, Phospho-SLP-76 (Ser376) HTRF, anti-CD3 stimulation, read-out: SLP76 Assay_IC50

IC50 [nM]	SMILES
62	CCn1c(C)nnc1-c1cccc(N2Cc3c(cc(N4CCC[C@H]4C)nc3CNC)C2=O)n1 [Example 121, 2-[6-(4-ethyl-5-methyl-4H-1,2,4-triazol-3-yl)pyridin-2-yl]-4-[(methylamino)methyl]-6-[(2R)-2-methylpyrrolidin-1-yl]-2,3-dihydro-1H-pyrrolo[3,4-c]pyridin-1-one]
232	CCCn1c(C)nnc1-c1cccc(N2Cc3c(cc(N4CCC[C@H]4C)nc3CN)C2=O)n1 [Example 133, 4-(aminomethyl)-2-[6-(5-methyl-4-propyl-4H-1,2,4-triazol-3-yl)pyridin-2-yl]-6-[(2R)-2-methylpyrrolidin-1-yl]-2,3-dihydro-1H-pyrrolo[3,4-c]pyridin-1-one]
53	CCCn1c(C)nnc1-c1cccc(N2Cc3c(cc(N4CCC[C@@H]4C)nc3CNC)C2=O)n1 [Example 134, 4-[(methylamino)methyl]-2-[6-(5-methyl-4-propyl-4H-1,2,4-triazol-3-yl)pyridin-2-yl]-6-[(2S)-2-methylpyrrolidin-1-yl]-2,3-dihydro-1H-pyrrolo[3,4-c]pyridin-1-one]
112	CCCn1c(C)nnc1-c1cccc(N2Cc3c(cc(N4CCC[C@@H]4C)nc3CN)C2=O)n1 [Example 159]
65	Cc1nnc(-c2cccc(N3Cc4c(cc(N5CCCC5(C)C)nc4CN)C3=O)n2)n1C(C)C [Example 164]
